# Experiments:
# [1] = target: T1, CSF1R (FMS) (Homo sapiens, UniProt P07333); experiment: CSF1R (FMS) kinase activity, Z'-LYTE biochemical assay (Invitrogen); conditions: ATP at or close to Km, 60 minute reaction at room temperature, read-out: Inhibitor activity versus CSF-1
# T1 construct: purchased Invitrogen (Paisley, UK)
# [2] = system: MCP-1; experiment: MCSF-stimulation of human whole blood, MCP-1 levels by sandwich ELISA; type: cell-based; conditions: inhibitor 2 hours before MCSF 50 ng/ml, 22 hrs, MCP-1 in cell-free supernatants, read-out: Inhibitor activity versus MCP-1
# T1 sequence (P07333 20-972): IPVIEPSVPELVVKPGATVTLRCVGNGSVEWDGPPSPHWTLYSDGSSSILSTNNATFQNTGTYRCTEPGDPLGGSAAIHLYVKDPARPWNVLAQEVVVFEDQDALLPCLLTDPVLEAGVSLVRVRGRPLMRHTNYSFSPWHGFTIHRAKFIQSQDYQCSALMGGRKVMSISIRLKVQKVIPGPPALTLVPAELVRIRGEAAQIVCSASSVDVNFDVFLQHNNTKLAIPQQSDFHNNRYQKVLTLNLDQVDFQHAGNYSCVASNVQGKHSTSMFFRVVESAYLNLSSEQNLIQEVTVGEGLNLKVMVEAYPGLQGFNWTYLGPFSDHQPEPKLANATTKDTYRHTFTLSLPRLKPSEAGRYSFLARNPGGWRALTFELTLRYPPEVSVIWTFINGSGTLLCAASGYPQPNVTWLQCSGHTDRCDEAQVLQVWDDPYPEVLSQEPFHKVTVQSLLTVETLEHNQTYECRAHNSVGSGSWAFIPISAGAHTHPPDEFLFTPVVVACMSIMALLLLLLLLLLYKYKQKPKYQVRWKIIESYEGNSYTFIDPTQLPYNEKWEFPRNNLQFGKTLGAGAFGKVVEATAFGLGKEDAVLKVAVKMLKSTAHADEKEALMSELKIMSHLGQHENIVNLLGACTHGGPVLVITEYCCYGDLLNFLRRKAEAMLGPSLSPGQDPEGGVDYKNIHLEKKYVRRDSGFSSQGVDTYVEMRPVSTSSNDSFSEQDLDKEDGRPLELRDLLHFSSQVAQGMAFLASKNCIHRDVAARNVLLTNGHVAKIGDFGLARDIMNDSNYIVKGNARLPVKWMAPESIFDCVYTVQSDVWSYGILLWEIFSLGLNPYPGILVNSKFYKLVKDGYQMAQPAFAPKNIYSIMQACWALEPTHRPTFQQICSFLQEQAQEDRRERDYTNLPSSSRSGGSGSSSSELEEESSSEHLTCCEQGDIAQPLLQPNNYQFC
Compound,IC50 [1],IC50 [2]
"Nc1ncc(-c2ccc(CNC3CCN[C@H](C(=O)OC4CCCC4)C3)cc2)nc1NCc1c(Cl)cccc1Cl (stereo partly drawn) [Example 8, Cyclopentyl (2S)-4-[(4-{5-amino-6-[(2,6-dichlorobenzyl)amino]pyrazin-2-yl}benzyl)amino]piperidine-2-carboxylate]",< 100 nM,100 to 300 nM
"CCN(Cc1ccc(-c2cnc(N)c(NCc3c(Cl)cccc3Cl)n2)cc1)C1CCN[C@@H](C(=O)OC(C)(C)C)C1 (stereo partly drawn) [Example 30, tert-Butyl (2R)-4-[(4-{5-amino-6-[(2,6-dichlorobenzyl)amino]pyrazin-2-yl}benzyl)(ethyl)amino]piperidine-2-carboxylate]",100 to 300 nM,100 to 300 nM
"CC(C)(C)OC(=O)[C@H]1CC(NC(=O)c2cccc(-c3cnc(N)c(NCc4c(Cl)cccc4Cl)n3)c2)CCN1 (stereo partly drawn) [Example 33, tert-Butyl (2R)-4-[(3-{5-amino-6-[(2,6-dichlorobenzyl)amino]pyrazin-2-yl}benzoyl)amino]piperidine-2-carboxylate]",100 to 300 nM,1000 to 5000 nM
"Nc1ncc(-c2cccc(CNC3CCN[C@@H](C(=O)OC4CCCC4)C3)c2)nc1NCc1c(Cl)cccc1Cl (stereo partly drawn) [Example 34, Cyclopentyl (2R)-4-[(3-{5-amino-6-[(2,6-dichlorobenzyl)amino]pyrazin-2-yl}benzyl)amino]piperidine-2-carboxylate]",< 100 nM,100 to 300 nM

# Source: US9604940B2 (Chroma Therapeutics Ltd., priority 2012, dated 2017)
